# Test system: IL-6, IL-8 and Cox-2 mRNA
# Experiment: TNF-α- and LPS-induced IL-6, IL-8 and Cox-2 mRNA in SAEC (RT-PCR)
# Type: cell-based, human
# Details: TNF-α 2 nM or LPS 1 μg/ml, 6 h
# Protocol: The SAEC were grown in 6-well plates at a density of approximately 3.0×10^5 cells/well. After approximately 80% confluence cells were serum-starved in the presence or absence of sorbinil (20 μM) or carrier for 24 h and then stimulated with either TNF-α (2 nM) or LPS (1 μg/mL). Total RNA from SAEC was isolated by using RNeasy kit (Qiagen) as per supplier's instructions. Aliquots of RNA (0.5-1.0 μg) isolated from each sample were reverse transcribed with Omniscript and Sensiscript reverse transcriptase one-step RT-PCR system with HotStar Taq DNApolymerase (Qiagen) at 55° C. for 30 min followed by PCR amplification. The oligonucleotide primer sequences were as follows: 5′-[…]-3′ (SEQ ID NO:3) (sense) and 5′-[…]-3′ (SEQ ID NO:4) (antisense) for IL-6; 5′-[…]-3′ (SEQ ID NO:5) (sense) and 5′-TCT […]-3′ (SEQ ID NO:6) (antisense) for IL-8; 5′-TGAAACCCACTCCA AACACAG-3′ (SEQ ID NO:7) (sense) and 5′-[…]-3′ (SEQ ID NO:8) (antisense) for Cox-2; and 5′-[…]-3′ (SEQ ID NO:9) (sense) and 5′-CGTC […]-3′ (SEQ ID NO:10) (antisense) for β-actin. PCR was carried out in a PCR Sprint thermal cycler (Thermo electron corporation, Milford, Mass.) under the following conditions: initial denaturation at 95° C. for 15 min followed by 35 cycles of 94° C. 1 min, 62° C. 1 min, 72° C. 1 min, and then 72° C. 10 min for final extension. […]
structure (smiles),measurement,value
O=C(O)Cc1nn(Cc2nc3cc(C(F)(F)F)ccc3s2)c(=O)c2ccccc12 [zopolrestat],prevention of TNF-α- and LPS-induced increase of Cox-2 mRNA levels,> 60%
